Patent US10966978B2, “Dose and regimen for HDM2-p53 interaction inhibitors” (Novartis AG, priority 2016, dated 2021)
Like-named read-outs stand apart in the source and are kept apart here.

Tested on: patients with advanced TP53 wild-type (WT) leukemias
Text: Patients with Ph+ ALL who show early markers of relapse in MRD surveillance can be considered for inclusion as long as other therapies such as TKIs are exhausted or cannot be given. • Tumor of the patient is TP53 wt characterized by, at a minimum, no mutations in exons 5, 6, 7 and 8, and the p53 status was obtained from a bone-marrow sample, collected no longer than 3 months before signing the main ICF. Safety and Tolerability Profile of Regimen 1B in Hematological Tumors

COc1ncc(-c2nc3c(n2C(C)C)[C@H](c2ccc(Cl)cc2)N(c2cc(Cl)cn(C)c2=O)C3=O)c(OC)n1 [HDM201, (S)-5-(5-Chloro-1-methyl-2-oxo-1,2-dihydro-pyridin-3-yl)-6-(4-chloro-phenyl)-2-(2,4-dimethoxy-pyrimidin-5-yl)-1-isopropyl-5,6-dihydro-1H-pyrrolo[3,4-d]imidazol-4-one]
6 (37.5) n (%): AE: Anaemia (Regimen 1A N = 16, All Grades)
3 (8.1) n (%): AE: White Blood Cell Count Decreased (All subjects N = 37, Grade 3/4)
9 (24.3) n (%): AE: Tumour Lysis Syndrome (All subjects N = 37, Grade 3/4)
2 (12.5) n (%): AE: Abdominal Pain (Regimen 1A N = 16, All Grades) | AE: Asthenia (Regimen 1A N = 16, All Grades) | AE: Atrial Fibrillation (Regimen 1A N = 16, All Grades)
0 n (%): AE: Atypical Pneumonia (All subjects N = 37, Grade 3/4) | AE: Balanitis Candida (All subjects N = 37, Grade 3/4) | AE: Blood Alkaline Phosphatase Increased (All subjects N = 37, Grade 3/4) | AE: Blood Bilirubin Increased (All subjects N = 37, Grade 3/4) | AE: Blood Phosphorus Increased (All subjects N = 37, Grade 3/4) | AE: Cardiac Failure (All subjects N = 37, Grade 3/4) | AE: Conjunctival Haemorrhage (All subjects N = 37, Grade 3/4) | AE: Constipation (All subjects N = 37, Grade 3/4) | AE: Cough (All subjects N = 37, Grade 3/4) | AE: Cystitis Viral (All subjects N = 37, Grade 3/4) | AE: Cytomegalovirus Infection (All subjects N = 37, Grade 3/4) | AE: Decreased Appetite (All subjects N = 37, Grade 3/4) | AE: Diarrhoea (All subjects N = 37, Grade 3/4) | AE: Dyspepsia (All subjects N = 37, Grade 3/4) | AE: Epistaxis (All subjects N = 37, Grade 3/4) | AE: Fatigue (All subjects N = 37, Grade 3/4) | AE: General Physical Health Deterioration (All subjects N = 37, Grade 3/4) | AE: Gingival Bleeding (All subjects N = 37, Grade 3/4) | AE: Graft Versus Host Disease (All subjects N = 37, Grade 3/4) | AE: Haemoglobin Decreased (All subjects N = 37, Grade 3/4) | AE: Headache (All subjects N = 37, Grade 3/4) | AE: Hyperbilirubinaemia (All subjects N = 37, Grade 3/4) | AE: Hyperglycaemia (All subjects N = 37, Grade 3/4) | AE: Hyperphosphataemia (All subjects N = 37, Grade 3/4) | AE: Hypoalbuminaemia (All subjects N = 37, Grade 3/4) | AE: Hypocalcaemia (All subjects N = 37, Grade 3/4) | AE: Hypokalaemia (All subjects N = 37, Grade 3/4) | AE: Hypomagnesaemia (All subjects N = 37, Grade 3/4) | AE: Hyponatraemia (All subjects N = 37, Grade 3/4) | AE: Hypotension (All subjects N = 37, Grade 3/4) | AE: Infective Glossitis (All subjects N = 37, Grade 3/4) | AE: Iron Overload (All subjects N = 37, Grade 3/4) | AE: Lip Oedema (All subjects N = 37, Grade 3/4) | AE: Malaise (All subjects N = 37, Grade 3/4) | AE: Mouth Haemorrhage (All subjects N = 37, Grade 3/4) | AE: Nausea (All subjects N = 37, Grade 3/4) | AE: Oedema (All subjects N = 37, Grade 3/4) | AE: Oedema Peripheral (All subjects N = 37, Grade 3/4) | AE: Oral Disorder (All subjects N = 37, Grade 3/4) | AE: Pain In Extremity (All subjects N = 37, Grade 3/4) | AE: Pneumonia (All subjects N = 37, Grade 3/4) | AE: Pollakiuria (All subjects N = 37, Grade 3/4) | AE: Pyrexia (All subjects N = 37, Grade 3/4) | AE: Rash (All subjects N = 37, Grade 3/4) | AE: Rash Erythematous (All subjects N = 37, Grade 3/4) | AE: Rash Papular (All subjects N = 37, Grade 3/4) | AE: Rectal Haemorrhage (All subjects N = 37, Grade 3/4) | AE: Skin Exfoliation (All subjects N = 37, Grade 3/4) | AE: Vomiting (All subjects N = 37, Grade 3/4) | AE: Weight Decreased (All subjects N = 37, Grade 3/4) | AE: Bone Marrow Failure (Regimen 1A N = 16, All Grades) | AE: Cellulitis (Regimen 1A N = 16, All Grades) | AE: Constipation (Regimen 1A N = 16, All Grades) | AE: Cytomegalovirus Infection (Regimen 1A N = 16, All Grades) | AE: Epistaxis (Regimen 1A N = 16, All Grades)
1 (6.3) n (%): AE: Abdominal Discomfort (Regimen 1A N = 16, All Grades) | AE: Abdominal Pain Upper (Regimen 1A N = 16, All Grades) | AE: Acute Kidney Injury (Regimen 1A N = 16, All Grades) | AE: Arthralgia (Regimen 1A N = 16, All Grades) | AE: Atypical Pneumonia (Regimen 1A N = 16, All Grades) | AE: Balanitis Candida (Regimen 1A N = 16, All Grades) | AE: Blood Alkaline Phosphatase Increased (Regimen 1A N = 16, All Grades) | AE: Blood Bilirubin Increased (Regimen 1A N = 16, All Grades) | AE: Blood Creatinine Increased (Regimen 1A N = 16, All Grades) | AE: Blood Phosphorus Increased (Regimen 1A N = 16, All Grades) | AE: Blood Uric Acid Increased (Regimen 1A N = 16, All Grades) | AE: C-Reactive Protein Increased (Regimen 1A N = 16, All Grades) | AE: Cardiac Failure (Regimen 1A N = 16, All Grades) | AE: Chronic Graft Versus Host Disease (Regimen 1A N = 16, All Grades) | AE: Conjunctival Haemorrhage (Regimen 1A N = 16, All Grades) | AE: Cough (Regimen 1A N = 16, All Grades) | AE: Cystitis Viral (Regimen 1A N = 16, All Grades) | AE: Dyspepsia (Regimen 1A N = 16, All Grades) | AE: Dyspnoea (Regimen 1A N = 16, All Grades)
3 (18.8) n (%): AE: Amylase Increased (Regimen 1A N = 16, All Grades)
11 (29.7) n (%): AE: Febrile Neutropenia (All subjects N = 37, Grade 3/4) | AE: Neutropenia/Neutrophil Count Decreased (All subjects N = 37, Grade 3/4)
4 (25.0) n (%): AE: Decreased Appetite (Regimen 1A N = 16, All Grades) | AE: Diarrhoea (Regimen 1A N = 16, All Grades)
1 (2.7) n (%): AE: Blood Creatinine Increased (All subjects N = 37, Grade 3/4) | AE: Blood Uric Acid Increased (All subjects N = 37, Grade 3/4) | AE: Bone Marrow Failure (All subjects N = 37, Grade 3/4) | AE: C-Reactive Protein Increased (All subjects N = 37, Grade 3/4) | AE: Cellulitis (All subjects N = 37, Grade 3/4) | AE: Chronic Graft Versus Host Disease (All subjects N = 37, Grade 3/4) | AE: Dyspnoea (All subjects N = 37, Grade 3/4) | AE: Gamma-Glutamyltransferase Increased (All subjects N = 37, Grade 3/4) | AE: Hyperkalaemia (All subjects N = 37, Grade 3/4) | AE: Hyperuricaemia (All subjects N = 37, Grade 3/4) | AE: Infection (All subjects N = 37, Grade 3/4) | AE: Macular Oedema (All subjects N = 37, Grade 3/4) | AE: Renal Failure (All subjects N = 37, Grade 3/4) | AE: Stomatitis (All subjects N = 37, Grade 3/4) | AE: Subarachnoid Haemorrhage (All subjects N = 37, Grade 3/4)
2 (5.4) n (%): AE: Hypophosphataemia (All subjects N = 37, Grade 3/4) | AE: Leukopenia (All subjects N = 37, Grade 3/4) | AE: Lipase Increased (All subjects N = 37, Grade 3/4) | AE: Pancytopenia (All subjects N = 37, Grade 3/4)
18 (48.6) n (%): AE: Thrombocytopenia/Platelet Count Decreased (All subjects N = 37, Grade 3/4)
25 (67.6) n (%): AE: Total (All subjects N = 37, Grade 3/4)
